Assay results: US20260232752A1, “COMBINATION THERAPY METHODS, COMPOSITIONS AND KITS” (Accure Therapeutics, S.L., priority 2019, published 2026)
Counter-ions that a name gives are not always drawn.

Columns and labels:
[1] = tested on: experimental autoimmune encephalomyelitis (EAE) mouse model; test: Study EAE-C05: clinical score in EAE mouse model with active comparators; assay type: in vivo; conditions: 2 mg/kg daily, after 5 days of treatment
Procedure: A second experiment (Study EAE-C05) was then performed using the same mouse model.
Study EAE-C05: In addition to two dose levels of BN201 and a placebo-treated group (pathological control group), the study design introduced two active comparators, dimethyl fumarate (DMF) and fingolimod (FTY720), and a sham group (group in which animals were manipulated as the pathological group but without MOG injection). All groups were administered daily. • sham control non-diseased placebo-treated animals (healthy control group); • EAE-affected placebo-treated animals (pathological control group); • EAE-affected animals treated orally with 15 mg/kg of DMF; • EAE-affected animals treated with 2 mg/kg of FTY720; • EAE-affected animals treated with BN201 at 50 or 100 mg/kg.
(§1) Clinical scores were assigned to assess disease severity using the following scale: 0=normal; 0.5=Partial tail paralysis; 1=Complete tail paralysis; 1.5=Tail paralysis and loss of righting reflex; 2=Partial hind limb paralysis/paralysis of one limb; 2.5=One limb paralysis and partial loss of activity of one other limb; 3=Bilateral hind limb paralysis; 4=Moribund; 5=exitus.
Therapeutic treatment was initiated on day 12 or 13, once each mouse started showing complete tail paralysis (Score 1).

[2] = tested on: experimental autoimmune encephalomyelitis (EAE) mouse model; test: Study EAE-C06: dose response of BN201, clinical score in EAE mouse model; assay type: in vivo; conditions: 2 mg/kg daily, almost all days of observation/treatment (Day 2 to day 30)
Procedure: A third experiment (Study EAE-C06) to test dose response of BN201 was then performed using the same mouse model.
Study EAE-C06: five different concentrations of BN201: 12.5 mg/kg, 25 mg/kg, 50 mg/kg, 100 mg/kg, and 150 mg/kg. Also sham, pathological control and FTY720 (2 mg/kg) comparator groups were included in the experiment. All groups were administered daily.
as §1
Therapeutic treatment was initiated on day 12 once each mouse started showing complete tail paralysis (Score 1).
Data are depicted in FIG. 1 (C), wherein the clinical score for each of the tested groups is plotted per day after disease onset.

[3] = tested on: EAE in C57BL6 mice immunized with MOG35-55; test: Example 4: BN201 and STAT3 inhibitor combination, chronic phase of EAE; assay type: in vivo, mouse; conditions: S31-201 5 mg/kg i.p. alone (optimal), from day 34 to day 54
Procedure: Effect during the chronic phase of the disease in the animal model of Multiple Sclerosis (i.e., EAE in C57BL6 mice immunized with MOG35-55)
Efficacy and safety of combination therapy with optimal doses of BN201 (50 mg/kg) and S31-201 (5 mg/kg) in the progression of chronic EAE in mice.
Starting the chronic phase of the disease (by day 34) mice were administered: • the STAT3 inhibitor S31-201 (group A, 7 mice), • BN201 (group B, 6 mice), or • a combination thereof (group C, 6 mice) once a day for six days per week at optimal dosages (5 mg/kg for S31-201, 50 mg/kg for BN201).
S31-201 and BN201 were administered via i.p. injection in a saline vehicle at a volume of 5 mL/kg. Control mice received vehicle only via both oral and i.p. injection (group D, 6 mice) or nothing at all (group E, 2 mice). Mice were treated from day 34 (chronic EAE stage) until the end of the experiment on day 54.
The combination of BN201 and the STAT3-inhibitor S31-201 was evaluated for its effect during the chronic phase of the disease in the animal model of Multiple Sclerosis (i.e., EAE in C57BL6 mice immunized with MOG35-55). The objective of the study was to evaluate the efficacy and safety of combination therapy with optimal doses of BN201 (50 mg/kg) and 531-201 (5 mg/kg) in the progression of chronic EAE in mice. […]

[4] = tested on: human neuroblastoma cell line SH-SY5Y; test: Neuroprotection against H2O2 oxidative stress, MTT assay; assay type: cell-based; conditions: 1 hour preincubation at 0.03-40 μM, then H2O2 15 μM 30 minutes
Procedure: The objective of the study was to test the possible synergistic effect of the BN201-monomethylfumarate salt in a neuroprotective assay. Thus, BN201-monomethylfumarate salt obtained as indicated in example 5, was tested for its ability to protect the human neuroblastoma cell line SH-SY5Y against death induced by oxidative stress (i.e., hydrogen peroxide (H202)) using an MTT (3-(4,5-dimethylthiazol-2-yl)-2,5-diphenyltetrazolium bromide) cell proliferation assay.
SH-SY5Y cells were cultivated in 50% Eagle's minimum essential medium (EMEM), 50% Ham's F12 Nutrient Mixture, 10% fetal bovine serum (FBS), 2 mM L-Glu, and 1% penicillin/streptomycin. All of the cell cultures were maintained in a humidified incubator at 5% CO2 and at 37° C. SH-SY5Y cells were preincubated for 1 hour with BN201 alone, monomethyl fumarate alone, or BN201-monomethylfumarate salt at various concentrations (n=5; concentrations: 0.03 μM, 0.1 μM, 0.3 μM, 0.5 μM, 1 μM, 3 μM, 5 μM, 10 μM, 20 μM, 40 μM) and then H2O2 (15 μM) was added to induce stress. Preincubation with sodium pyruvate (10 mM) was used as a positive control. After 30 minutes of H2O2 incubation, the medium was changed and thiazolyl blue tetrazolium bromide (MTT; Sigma Aldrich; stock concentration 10 mg/ml) was added to each well at the final concentration of 0.5 mg/ml. After 2 hours of MTT incubation the cell medium was removed, and cells were resuspended in pure dimethyl sulfoxide (DMSO). Cell viability was determined by reading the absorbance at 570 nm. Each experiment was performed in quintuplicate.

[5] = tested on: rat model of experimental autoimmune encephalomyelitis (EAE); conditions: cited from earlier work
[6] = tested on: non-obese diabetic mouse model of relapsing-remitting EAE; conditions: cited from earlier work
[7] = tested on: EAE in C57BL6 mice immunized with MOG35-55; test: Example 3: BN201 and DMF combination, progression of chronic EAE; assay type: in vivo, mouse; conditions: DMF 10 mg/kg oral alone (suboptimal), once a day six days per week from day 15
Procedure: Effect in the animal model of MS (i.e., EAE in C57BL6 mice immunized with MOG35-55), similar to Example 2.
Starting on day 15, mice were administered: • dimethyl fumarate (DMF) (group A, 10 mice), • BN201 (group B, 10 mice) • a combination thereof (group C, 10 mice) once a day for six days per week at suboptimal dosages (10 mg/kg for DMF, 25 mg/kg for BN201).
DMF was administered orally with a rigid cannula in a saline vehicle at a volume of 10 mL/kg, while BN201 was administered via i.p. injection in a saline vehicle at a volume of 5 mL/kg. Control mice received vehicle only via both oral and i.p. injection (group D, 10 mice) or nothing at all (group E, 2 mice).
The objective of the study was to evaluate the efficacy and safety of combination therapy with suboptimal doses of BN201 (25 mg/kg) and dimethyl-fumarate (DMF) (10 mg/kg) in the progression of chronic EAE in mice.
During a one week acclimation period starting on day −7, mice were distributed based on body weight stratification into different experimental groups. On day 0, mice were immunized subcutaneously in both hind pads with 150 μg of MOG peptide 35-55 (Spikem, Firenze) emulsified with 50 μg of Mycobacterium tuberculosis (H37Ra strain; Difco, Detroit, MI) in incomplete Freund's adjuvant (IFA). […]

Q: With `CCCCCCCCc1ccc(CCC(N)(CO)CO)cc1` [FTY720, Fingolimod, reference compound] as the compound, how does the “clinical score compared to pathological control group” value [1] read?
A: significantly lower

Q: And the clinical score [2]?
A: significant amelioration of the clinical score

Q: With `Cc1ccc(S(=O)(=O)OCC(=O)Nc2ccc(C(=O)O)c(O)c2)cc1` [S31-201, 2-Hydroxy-4-[[[[(4-methylphenyl)sulfonyl]oxy]acetyl]amino]-benzoic acid, reference compound] as the compound, how does the “course of EAE in chronic phase (clinical score)” value [3] read?
A: not efficacious

Q: What does the source list for `CC(C)CN(CC(=O)N(CCCN1CCCC1=O)CC(N)=O)C(=O)CNCCc1ccccc1F` [BN201-monomethylfumarate salt]?
A: cell viability as a percentage compared to the control (protection from death induced by oxidative stress) [4]: increased; cell viability as a percentage compared to the control (protection from death induced by oxidative stress) ([4]; listed as BN201-monomethylfumarate): significantly higher level of neuroprotection than either compound alone

Q: What does the source list for `CCCc1ccc(COc2ccc3c(c2)CCC(CN2CC(C(=O)O)C2)=C3C)c(OC)c1` [Ceralifimod, 1-[[6-[(2-methoxy-4-propylphenyl)methoxy]-1-methyl-3,4-dihydronaphthalen-2-yl]methyl]azetidine-3-carboxylic acid]?
A: disease onset [5]: delays disease onset; lymphocyte infiltration of the spinal cord [5]: inhibits lymphocyte infiltration of the spinal cord; disease relapse [6]: prevents disease relapse

Q: With `COC(=O)/C=C/C(=O)OC` [DMF, Dimethyl fumarate, reference compound] as the compound, how does the “course of EAE (clinical score) versus placebo” value [7] read?
A: suffered EAE similar to those mice treated with placebo

Q: With `COC(=O)/C=C/C(=O)O` [fumarate, fumaric acid monomethyl ester, reference compound] as the compound, how does the “cell viability as a percentage compared to the control (protection from death induced by oxidative stress)” value [4] read?
A: partially rescued neurons from death induced by oxidative stress
